Assay results reported in US10988477B2 (Merck Patent GmbH, priority 2018, dated 2021).

Tests used:
GCN2 kinase = GCN2 kinase (Homo sapiens, UniProt Q9P2K8); test: GCN2 enzyme inhibition assay (Transcreener ADP2 fluorescence polarization); type: biochemical; conditions: Enzyme activity for compounds of Formula IV; Ki(app), 280 μM ATP, 25° C.
Method in brief: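 Inhibition of 4 nM GCN2 was measured with compound up to 8 μM final, ATP 280 μM and (RS)7 peptide 200 μM over a 1 h, 25 °C reaction. ADP FP readout; IC50 and Ki(app) calculated from percent inhibition.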

[1] = molecular target: intracellular GCN2 (phosphorylation of the GCN2 substrate eIF2α) (Homo sapiens, UniProt Q9P2K8); test: GCN2 cellular inhibition assay (AlphaScreen SureFire P-eIF2α Ser51, borrelidin-treated U2OS cells); type: cell-based; conditions: compounds of Formula IV; biomarker assay, phosphorylated eIF2α Ser51 in borrelidin-treated U2OS cells
Method in brief: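 Compound effect on GCN2 is gauged by eIF2α Ser51 phosphorylation in borrelidin-challenged U2OS cells (10 μM, 1 h). Top compound level is 40 μM final.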

GCN2 kinase, sequence (Q9P2K8 whole entry): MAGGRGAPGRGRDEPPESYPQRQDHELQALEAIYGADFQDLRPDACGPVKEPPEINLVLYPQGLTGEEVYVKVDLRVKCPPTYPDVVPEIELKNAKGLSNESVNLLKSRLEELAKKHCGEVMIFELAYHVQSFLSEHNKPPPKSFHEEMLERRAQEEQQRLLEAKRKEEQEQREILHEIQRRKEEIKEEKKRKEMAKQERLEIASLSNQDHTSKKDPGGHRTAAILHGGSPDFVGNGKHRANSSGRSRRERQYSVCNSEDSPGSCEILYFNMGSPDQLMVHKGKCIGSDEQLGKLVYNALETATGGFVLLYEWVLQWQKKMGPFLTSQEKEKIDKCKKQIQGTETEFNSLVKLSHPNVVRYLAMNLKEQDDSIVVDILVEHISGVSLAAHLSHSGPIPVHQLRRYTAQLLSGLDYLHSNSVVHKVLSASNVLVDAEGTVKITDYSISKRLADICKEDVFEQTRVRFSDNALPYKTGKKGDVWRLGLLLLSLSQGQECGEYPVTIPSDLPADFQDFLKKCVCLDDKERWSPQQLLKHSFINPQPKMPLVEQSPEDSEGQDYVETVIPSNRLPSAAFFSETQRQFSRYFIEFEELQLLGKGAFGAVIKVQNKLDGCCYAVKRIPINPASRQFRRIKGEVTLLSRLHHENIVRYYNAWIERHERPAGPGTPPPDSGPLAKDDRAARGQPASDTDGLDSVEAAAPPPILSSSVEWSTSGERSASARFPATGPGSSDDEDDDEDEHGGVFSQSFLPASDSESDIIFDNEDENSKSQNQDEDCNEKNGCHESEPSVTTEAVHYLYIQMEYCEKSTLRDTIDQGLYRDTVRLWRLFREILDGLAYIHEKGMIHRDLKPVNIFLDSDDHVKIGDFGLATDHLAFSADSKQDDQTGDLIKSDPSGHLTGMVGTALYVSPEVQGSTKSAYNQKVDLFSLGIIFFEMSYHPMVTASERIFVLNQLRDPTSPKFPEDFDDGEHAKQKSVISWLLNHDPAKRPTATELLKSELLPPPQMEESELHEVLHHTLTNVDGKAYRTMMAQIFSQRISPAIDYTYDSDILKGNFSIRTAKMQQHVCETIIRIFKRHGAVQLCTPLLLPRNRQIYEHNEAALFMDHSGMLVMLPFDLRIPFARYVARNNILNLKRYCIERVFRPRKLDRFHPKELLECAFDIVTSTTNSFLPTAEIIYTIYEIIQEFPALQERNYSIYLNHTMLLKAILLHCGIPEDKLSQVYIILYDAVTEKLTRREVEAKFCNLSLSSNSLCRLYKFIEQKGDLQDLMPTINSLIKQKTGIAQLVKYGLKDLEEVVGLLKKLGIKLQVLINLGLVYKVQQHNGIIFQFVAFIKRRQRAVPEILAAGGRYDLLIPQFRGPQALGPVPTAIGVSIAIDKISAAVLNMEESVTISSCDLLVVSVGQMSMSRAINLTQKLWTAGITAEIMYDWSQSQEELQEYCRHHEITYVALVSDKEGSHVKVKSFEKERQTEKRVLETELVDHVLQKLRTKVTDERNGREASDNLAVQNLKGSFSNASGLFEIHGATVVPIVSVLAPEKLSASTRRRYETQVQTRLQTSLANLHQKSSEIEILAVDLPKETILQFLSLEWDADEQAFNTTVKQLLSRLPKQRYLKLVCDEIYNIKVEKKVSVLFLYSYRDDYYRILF
intracellular GCN2 (phosphorylation of the GCN2 substrate eIF2α), sequence (Q9P2K8 whole entry): as above

Ki (GCN2 kinase)	IC50 [1]	Compound
0.1 to 1 µM	> 5 µM	O=C(C1CCCN(c2ccnc(-c3cnc4cnc(C(F)F)cn34)n2)C1)N1CCNCC1 (stereo not drawn) [IV-139, (1-(2-(6-(Difluoromethyl)imidazo[1,2-a]pyrazin-3-yl)pyrimidin-4-yl)piperidin-3-yl)(piperazin-1-yl)methanone]
0.1 to 1 µM	> 5 µM	FC(F)c1cn2c(-c3nccc(N4CCC5(CCNCC5)C4)n3)cnc2cn1 [IV-140, 2-(2-(6-(Difluoromethyl)imidazo[1,2-a]pyrazin-3-yl)pyrimidin-4-yl)-2,8-diazaspiro[4.5]decane]
0.1 to 1 µM	> 5 µM	CS(C)(=O)=NC1CCCN(c2ccnc(-c3cnc4cnc(C(F)F)cn34)n2)C1 (stereo not drawn) [IV-141, ((1-(2-(6-(Difluoromethyl)imidazo[1,2-a]pyrazin-3-yl)pyrimidin-4-yl)piperidin-3-yl)imino)dimethyl-λ^6-sulfanone]
0.1 to 1 µM	> 5 µM	OC[C@H]1CCCN(c2ccnc(-c3cnc4cnc(C(F)F)cn34)n2)C1 [IV-142, (S)-(1-(2-(6-(Difluoromethyl)imidazo[1,2-a]pyrazin-3-yl)pyrimidin-4-yl)piperidin-3-yl)methanol]
0.1 to 1 µM	> 5 µM	NCC1CCCN(c2ccnc(-c3cnc4cnc(C(F)F)cn34)n2)C1 (stereo not drawn) [IV-143, (1-(2-(6-(Difluoromethyl)imidazo[1,2-a]pyrazin-3-yl)pyrimidin-4-yl)piperidin-3-yl)methanamine]
0.1 to 1 µM	0.5 to 5 µM	CS(=O)(=O)N1CCC2CCN(c3ccnc(-c4cnc5cnc(C(F)F)cn45)n3)CC21 (stereo not drawn) [IV-144, 6-(Difluoromethyl)-3-(4-(1-(methylsulfonyl)octahydro-6H-pyrrolo[2,3-a]pyridin-6-yl)pyrimidin-2-yl)imidazo[1,2-a]pyrazine]
0.1 to 1 µM	> 5 µM	CS(=O)(=O)N1CCC2(CCN(c3ccnc(-c4cnc5cnc(C(F)F)cn45)n3)C2)CC1 [IV-145, 2-(2-(6-(Difluoromethyl)imidazo[1,2-a]pyrazin-3-yl)pyrimidin-4-yl)-8-(methylsulfonyl)-2,8-diazaspiro[4.5]decane]
0.1 to 1 µM	> 5 µM	CS(=O)(=O)NCc1cccc(-c2ccnc(-c3cnc4cnc(C(F)F)cn34)n2)c1 [IV-146, N-(3-(2-(6-(Difluoromethyl)imidazo[1,2-a]pyrazin-3-yl)pyrimidin-4-yl)benzyl)methanesulfonamide]
0.1 to 1 µM	> 5 µM	CS(=O)(=O)Nc1cccc(-c2ccnc(-c3cnc4cnc(C(F)F)cn34)n2)c1 [IV-147, N-(3-(2-(6-(Difluoromethyl)imidazo[1,2-a]pyrazin-3-yl)pyrimidin-4-yl)phenyl)methanesulfonamide]
0.1 to 1 µM	> 5 µM	NCS(=O)(=O)c1cccc(-c2ccnc(-c3cnc4cnc(C(F)F)cn34)n2)c1 [IV-148, ((3-(2-(6-(Difluoromethyl)imidazo[1,2-a]pyrazin-3-yl)pyrimidin-4-yl)phenyl)sulfonyl)methanamine]
0.1 to 1 µM	> 5 µM	O=C(c1cccc(-c2ccnc(-c3cnc4cnc(C(F)F)cn34)n2)c1)N1CCNCC1 [IV-150, (3-(2-(6-(Difluoromethyl)imidazo[1,2-a]pyrazin-3-yl)pyrimidin-4-yl)phenyl)(piperazin-1-yl)methanone]
0.1 to 1 µM	> 5 µM	CS(=O)(=O)NCC1CCCN(c2ccnc(-c3cnc4cnc(C(F)F)cn34)n2)C1 (stereo not drawn) [IV-152, N-((1-(2-(6-(Difluoromethyl)imidazo[1,2-a]pyrazin-3-yl)pyrimidin-4-yl)piperidin-3-yl)methyl)methanesulfonamide]
0.1 to 1 µM	> 5 µM	CCn1cc(-c2ccnc(-c3cnc4cnc(C(F)F)cn34)n2)cn1 [IV-154, 6-(Difluoromethyl)-3-(4-(1-ethyl-1H-pyrazol-4-yl)pyrimidin-2-yl)imidazo[1,2-a]pyrazine]
0.1 to 1 µM	> 5 µM	NC(=O)Cc1cccc(-c2ccnc(-c3cnc4cnc(C(F)F)cn34)n2)c1 [IV-155, 2-(3-(2-(6-(Difluoromethyl)imidazo[1,2-a]pyrazin-3-yl)pyrimidin-4-yl)phenyl)acetamide]
0.1 to 1 µM	> 5 µM	CC(=O)N1CC=C(c2ccnc(-c3cnc4cnc(C(F)F)cn34)n2)CC1 [IV-156, 1-(4-(2-(6-(Difluoromethyl)imidazo[1,2-a]pyrazin-3-yl)pyrimidin-4-yl)-3,6-dihydropyridin-1(2H)-yl)ethan-1-one]
0.1 to 1 µM	> 5 µM	N#CCc1cccc(-c2ccnc(-c3cnc4cnc(C(F)F)cn34)n2)c1 [IV-157, 2-(3-(2-(6-(Difluoromethyl)imidazo[1,2-a]pyrazin-3-yl)pyrimidin-4-yl)phenyl)acetonitrile]
0.1 to 1 µM	> 5 µM	NCc1cccc(-c2ccnc(-c3cnc4cnc(C(F)F)cn34)n2)c1 [IV-159, (3-(2-(6-(Difluoromethyl)imidazo[1,2-a]pyrazin-3-yl)pyrimidin-4-yl)phenyl)methanamine]

Ki (GCN2 kinase)	IC50 [1]	Compound
0.1 to 1 µM	> 5 µM	Oc1cccc(-c2ccnc(-c3cnc4cnc(C(F)F)cn34)n2)c1 [IV-161, 3-(2-(6-(Difluoromethyl)imidazo[1,2-a]pyrazin-3-yl)pyrimidin-4-yl)phenol]
0.1 to 1 µM	> 5 µM	OCc1cccc(-c2ccnc(-c3cnc4cnc(C(F)F)cn34)n2)c1 [IV-162, (3-(2-(6-(Difluoromethyl)imidazo[1,2-a]pyrazin-3-yl)pyrimidin-4-yl)phenyl)methanol]
0.1 to 1 µM	> 5 µM	CNS(=O)(=O)C1CCCN(c2ccnc(-c3cnc4cnc(C(F)F)cn34)n2)C1 (stereo not drawn) [IV-164, 1-(2-(6-(Difluoromethyl)imidazo[1,2-a]pyrazin-3-yl)pyrimidin-4-yl)-N-methylpiperidine-3-sulfonamide]
0.1 to 1 µM	> 5 µM	CS(=O)(=O)C1CCCN(c2ccnc(-c3cnc4cnc(C(F)F)cn34)n2)C1 (stereo not drawn) [IV-165, 6-(Difluoromethyl)-3-(4-(3-(methylsulfonyl)piperidin-1-yl)pyrimidin-2-yl)imidazo[1,2-a]pyrazine]
0.1 to 1 µM	> 5 µM	CN1CCN(Cc2cccc(-c3ccnc(-c4cnc5cnc(C(F)F)cn45)n3)c2)CC1 [IV-166, 6-(Difluoromethyl)-3-(4-(3-((4-methylpiperazin-1-yl)methyl)phenyl)pyrimidin-2-yl)imidazo[1,2-a]pyrazine]
0.1 to 1 µM	> 5 µM	NCC(=O)Nc1cccc(-c2ccnc(-c3cnc4cnc(C(F)F)cn34)n2)c1 [IV-167, 2-Amino-N-(3-(2-(6-(difluoromethyl)imidazo[1,2-a]pyrazin-3-yl)pyrimidin-4-yl)phenyl)acetamide]
0.1 to 1 µM	> 5 µM	CN(C1CCCN(c2ccnc(-c3cnc4cnc(C(F)F)cn34)n2)C1)S(C)(=O)=O (stereo not drawn) [IV-168, N-(1-(2-(6-(Difluoromethyl)imidazo[1,2-a]pyrazin-3-yl)pyrimidin-4-yl)piperidin-3-yl)-N-methylmethanesulfonamide]
0.1 to 1 µM	> 5 µM	CS(=O)(=O)NC1CCCN(c2ccnc(-c3cnc4cnc(C(F)F)cn34)n2)C1 (stereo not drawn) [IV-169, N-(1-(2-(6-(Difluoromethyl)imidazo[1,2-a]pyrazin-3-yl)pyrimidin-4-yl)piperidin-3-yl)methanesulfonamide]
0.1 to 1 µM	> 5 µM	CN(C)S(=O)(=O)C1CCCN(c2ccnc(-c3cnc4cnc(C(F)F)cn34)n2)C1 (stereo not drawn) [IV-170, 1-(2-(6-(Difluoromethyl)imidazo[1,2-a]pyrazin-3-yl)pyrimidin-4-yl)-N,N-dimethylpiperidine-3-sulfonamide]
0.1 to 1 µM	> 5 µM	O=S(=O)(NC1CCCC1)C1CCCN(c2ccnc(-c3cnc4cnc(C(F)F)cn34)n2)C1 (stereo not drawn) [IV-171, N-Cyclopentyl-1-(2-(6-(difluoromethyl)imidazo[1,2-a]pyrazin-3-yl)pyrimidin-4-yl)piperidine-3-sulfonamide]
0.1 to 1 µM	> 5 µM	O=S(=O)(C1CCCN(c2ccnc(-c3cnc4cnc(C(F)F)cn34)n2)C1)N1CCOCC1 (stereo not drawn) [IV-172, 4-((1-(2-(6-(Difluoromethyl)imidazo[1,2-a]pyrazin-3-yl)pyrimidin-4-yl)piperidin-3-yl)sulfonyl)morpholine]
0.1 to 1 µM	> 5 µM	FC(F)c1cn2c(-c3nccc(N4CCCC(c5cscn5)C4)n3)cnc2cn1 (stereo not drawn) [IV-174, 4-(1-(2-(6-(Difluoromethyl)imidazo[1,2-a]pyrazin-3-yl)pyrimidin-4-yl)piperidin-3-yl)thiazole]
0.1 to 1 µM	> 5 µM	OCc1ccc(-c2ccnc(-c3cnc4cnc(C(F)F)cn34)n2)s1 [IV-175, (5-(2-(6-(Difluoromethyl)imidazo[1,2-a]pyrazin-3-yl)pyrimidin-4-yl)thiophen-2-yl)methanol]
0.1 to 1 µM	> 5 µM	NC(=O)c1ccc(F)c(-c2ccnc(-c3cnc4cnc(C(F)F)cn34)n2)c1 [IV-176, 3-(2-(6-(Difluoromethyl)imidazo[1,2-a]pyrazin-3-yl)pyrimidin-4-yl)-4-fluorobenzamide]
0.1 to 1 µM	> 5 µM	NS(=O)(=O)C1CCCN(c2ccnc(-c3cnc4cnc(C(F)F)cn34)n2)C1 (stereo not drawn) [IV-177, 1-(2-(6-(Difluoromethyl)imidazo[1,2-a]pyrazin-3-yl)pyrimidin-4-yl)piperidine-3-sulfonamide]
0.1 to 1 µM	> 5 µM	NS(=O)(=O)N[C@H]1CCCN(c2ccnc(-c3cnc4cnc(C(F)F)cn34)n2)C1 [IV-179, 6-(Difluoromethyl)-3-[4-[(3S)-3-(sulfamoylamino)-1-piperidyl]pyrimidin-2-yl]imidazo[1,2-a]pyrazine]
